Data published in patent US20110166107A1, “METHODS AND KITS FOR DETECTING RISK FACTORS FOR DEVELOPMENT OF JAW OSTEONECROSIS AND METHODS OF TREATMENT THEREOF” (UNIVERSITY OF FLORIDA RESEARCH FOUNDATION INC., priority 2008, published 2011).

Experiment: Chart review of BONJ incidence in patients treated with bisphosphonates (UF / VAMC)
Assay type: in vivo, human
Settings: outpatient bone marrow transplant clinic, all patients had myeloma; pamidronate only (total incidence 13%)
Source text: Medical and dental charts at the University of Florida (UF) and the associated Veterans Administration Medical Center (VAMC) were reviewed. […] There were 21 males. […] Fourteen patients had modest increases in their serum creatinine concentrations. The average number of previous chemo/radiotherapy regimens was 3.5. Nine patients had Thalidomide, 5 had Bortizomib. Primary disease status was as follows: 12 patients in clinical remission, 5 with stable disease and 10 with progressive disease. Eight patients received statin therapy and 6 had diabetes mellitus. The median length of treatment with BP before the diagnosis of BONJ was 28 months. BONJ involved the mandible in 21 patients, maxilla in 4 and both in 2 patients. The most frequent presentation was pain, swelling, and exposed bone (FIG. 1). […] The BONJ incidence differed among the 3 centers where these patients were treated. […] The incidence in the VAMC was 4.2% while the incidence in the Cancer Center clinic at UF was 1.7%. In the latter two groups, patients had mostly solid tumors. The results described herein are consistent with the reports of increased incidence of BONJ with greater duration of therapy and that myeloma patients are more likely to develop the complication than solid tumor patients.

For `NCCC(O)(P(=O)(O)O)P(=O)(O)O` [pamidronate], the BONJ incidence was 4%.
